Read-outs that look alike come from different tables or passages of the source.
Target: T1, human GnRH receptor (Homo sapiens, UniProt P30968)
T1 construct: The cDNA for the human GnRH receptor is cloned into the plasmid expression vector, pcDNA 3; expressed in transfected cells; host or cells: HEK 293 cells, stably transfected (pcDNA 3); membrane preparation
T1 sequence (P30968 1-328): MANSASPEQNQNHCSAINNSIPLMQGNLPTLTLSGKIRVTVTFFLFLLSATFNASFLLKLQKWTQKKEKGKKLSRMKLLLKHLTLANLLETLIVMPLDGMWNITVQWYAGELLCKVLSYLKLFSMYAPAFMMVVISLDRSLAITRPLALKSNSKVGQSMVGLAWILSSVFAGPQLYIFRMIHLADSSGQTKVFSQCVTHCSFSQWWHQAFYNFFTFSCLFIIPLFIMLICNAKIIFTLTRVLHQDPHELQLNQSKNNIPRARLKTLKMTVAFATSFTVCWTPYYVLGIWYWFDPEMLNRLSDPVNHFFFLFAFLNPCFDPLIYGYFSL
Experiment: GnRH receptor competitive radioligand binding assay (125I-GnRH-A, HEK 293 cell membranes)
Settings: compound at 10 μM
Excerpt: The cDNA for the human GnRH receptor is cloned into the plasmid expression vector, pcDNA 3 (In Vitrogen), and stably transfected in HEK 293 cells (a cell line developed by Dr. Stuart Sealfon, Mount Sinai Medical School, New York, N.Y.).
The human GnRH receptor (hGnRH) is cloned into pcDNA 3 (In Vitrogen), which provides high-level expression and a neomycin resistance marker. Lipofectamine (GIBCO BRL) is used to transfect HEK 293 cells with plasmid DNA. This method involves mixing the plasmid and reagent in serum-free medium, allowing DNA-liposome complexes to form, and overlaying cells with this solution. The HEK 293 cells are plated (seeded) on a 10-cm tissue culture dish at a density of 3×10^6 cells/dish the day before transfection. For each plate, 8 μg DNA plus 0.8 mL serum-free medium is mixed with 48 μL lipofectamine plus 0.8 mL serum-free medium, followed by incubation for 30 minutes at room temperature to allow DNA-liposome complexes to form. Serum-free medium is added to give a final volume of 6 mL/plate. The cells are rinsed twice with serum-free medium and overlayed with the DNA-liposome mixture. Five hours after transfection, an equal volume (6 mL) of medium containing 20% FBS (fetal bovine serum) is added. The cells are fed with fresh complete medium 18-24 hours after transfection. The cells are split 72 hours following transfection, at densities of 1:10 and 1:20. Stable tranformants are selected for by growth of the cells in antibiotic containing medium (G418, Sigma Chemical Company (also known as Geneticin)). Colonies are isolated and tested for receptor expression by radioligand binding and by measuring phosphoinositol turnover.
HEK 293 cells stably transfected with human GnRH receptors as described above are grown in MEM (minimal essential medium, available from Sigma Chemical Company) supplemented with 0.1% G418 (Sigma Chemical Company). Cells are homogenized in buffer A containing 50 mM Tris (pH 74.), 0.32M sucrose, 2 mM ethyleneglycol-bis(β-aminoethyl)-N,N,N′,N′-tetraacetic acid (EGTA), 1 mM phenylmethylsulfonyl fluoride (PMSF), 5 μg/mL aprotinen, 5 μg/mL Pepstatin A, and 1 μg/mL leupeptin. The homogenized cells are centrifuged at 4° C. at 20,000×g for 25 minutes, resuspended in buffer A, and recentrifuged at 4° C. at 20,000×g for an additional 25 minutes. Total membrane protein is determined with a BCA kit (Pierce, Rockford, Ill.). Membranes are stored at −70° C. at a final membrane protein concentration of 5 mg/mL.
The radioiodinated agonist analog of GnRH, [des-Gly^10, D-Ala^8]GnRH ethylamide (GnRH-A), is used as the labeled ligand. One μg of GnRH-A diluted in 0.1M acetic acid is added to an lodogen®-coated borosilicate glass tube pierce) containing 35 μL of 0.05M phosphate buffer (pH 7.4-7.6) and 1 mCi of Na[^125I]. The reaction mixture is vortexed and incubated for 1 minute at room temperature. After one minute, the mixture is vortexed again and allowed to incubate for an additional minute. Two mL of 0.5M acetic acid/1% BSA is added to the reaction tube, and the mixture is added to a C18 Sep-Pak cartridge. The cartridge is washed with subsequent washes of 5 mL H2O and 5 mL 0.5M acetic acid, and then eluted with 5×1 mL of 60% CH3CN/40% 0.5M acetic acid. The eluant is diluted with 3×volume of HPLC buffer A (0.1% TFA in H2O) and loaded onto a C18 column. The iodinated product is eluted over 20-25 minutes with a gradient of 25-100% CH3CN containing 0.1% TFA. The radioactive fractions (750 μL/fraction) are collected into clean polypropylene tubes containing 10 μL of 10% BSA. Fractions are assessed for biological activity by radioligand binding. Active fractions are utilized to screen the compounds for competitive binding assays.
HEK 293 cell membranes stably expressing hGnRHR (human GnRH receptors) are diluted to 0.5-1.0 mg/mL with assay buffer containing 50 mM HEPES (pH 7.4), 1 mM ethylenediarninetetraacetic acid (EDTA), 2.5 mM MgCl2, and 0.1% BSA. […]

[1] = average of 1st and 2nd test, read-out: Average % Remaining (percent of specific binding remaining)
[2] = crude compounds, 125I-GnRH-A, lower value = higher inhibition, read-out: % Remaining 1st Test (percent of specific binding remaining)
[3] = crude compounds, 125I-GnRH-A, lower value = higher inhibition, read-out: % Remaining 2nd Test (percent of specific binding remaining)

Structure (SMILES)	remaining activity at 10 µM [1]	remaining activity at 10 µM [2]	remaining activity at 10 µM [3]
Cc1cc2c(cc1CN(CC1CCCC(CNC(=N)N)C1)C(=O)c1ccco1)C(C)(C)CCC2(C)C (stereo not drawn) [Compound 55]	-2%	-2%	-1%
Cc1cc2c(cc1CN(CC1CCCC(CNC(=N)N)C1)C(=O)c1ccccc1)C(C)(C)CCC2(C)C (stereo not drawn) [Compound 56]	58%	56%	60%
CC(=O)N(Cc1cc2c(cc1C)C(C)(C)CCC2(C)C)CC1CCCC(CNC(=N)N)C1 (stereo not drawn) [Compound 57]	55%	47%	63%
Cc1cc2c(cc1CN(CC1CCCC(CNC(=N)N)C1)C(=O)c1ccc(Cl)nc1)C(C)(C)CCC2(C)C (stereo not drawn) [Compound 58]	59%	57%	60%
N=C(N)NCC1CCCC(CN(Cc2ccc(OCc3ccccc3)c(OCc3ccccc3)c2)C(=O)C2CCCCC2)C1 (stereo not drawn) [Compound 59]	59%	57%	60%
N=C(N)NCC1CCCC(CN(Cc2ccc(OCc3ccccc3)c(OCc3ccccc3)c2)C(=O)c2ccccc2)C1 (stereo not drawn) [Compound 62]	52%	49%	55%
CC(=O)N(Cc1ccc(OCc2ccccc2)c(OCc2ccccc2)c1)CC1CCCC(CNC(=N)N)C1 (stereo not drawn) [Compound 63]	48%	49%	47%
N=C(N)NCC1CCCC(CN(Cc2ccc(OCc3ccccc3)c(OCc3ccccc3)c2)C(=O)c2ccc(Cl)nc2)C1 (stereo not drawn) [Compound 64]	49%	46%	51%
N=C(N)NCC1CCCC(CN(Cc2ccc3c(c2)OCCO3)C(=O)c2cccc3ccccc23)C1 (stereo not drawn) [Compound 65]	55%	50%	59%
N=C(N)NCC1CCCC(CN(Cc2ccc3c(c2)OCCO3)C(=O)c2ccc3ccccc3c2)C1 (stereo not drawn) [Compound 66]	54%	50%	57%
CN(C)Cc1ccc(CN(CC2C=CCC3C4CC=CCC4OC23)C(=O)c2ccc3ccccc3c2)cc1 (stereo not drawn) [Compound 68]	48%	61%	44%
CN(C)Cc1ccc(CN(Cc2ccc(OCc3ccccc3)c(OCc3ccccc3)c2)C(=O)c2cccs2)cc1 [Compound 69]	57%	59%	54%
CN(C)Cc1ccc(CN(Cc2ccc(OCc3ccccc3)c(OCc3ccccc3)c2)C(=O)c2ccco2)cc1 [Compound 70]	45%	47%	48%

Now from value to molecule:

remaining activity at 10 µM [1]	remaining activity at 10 µM [2]	remaining activity at 10 µM [3]	Structure (SMILES)
60%	54%	65%	CC(C)(C)c1ccc(CN(CC2CCC(CNC(=N)N)CC2)C(=O)c2ccco2)cc1 (stereo not drawn) [Compound 71]
52%	49%	54%	CC(C)(C)c1ccc(CN(CC2CCC(CNC(=N)N)CC2)C(=O)c2cc3ccccc3s2)cc1 (stereo not drawn) [Compound 72]
58%	59%	57%	CC(C)(C)c1ccc(CN(CC2CCC(CNC(=N)N)CC2)C(=O)C2CCCC2)cc1 (stereo not drawn) [Compound 73]
50%	51%	48%	CN(C)COc1ccc(CN(CC2CCC(CNC(=N)N)CC2)C(=O)c2cc3ccccc3s2)cc1 (stereo not drawn) [Compound 74]
59%	59%	58%	CC(=O)N(Cc1cccc(Oc2ccc(Cl)cc2)c1)CC1CCC(CNC(=N)N)CC1 (stereo not drawn) [Compound 75]
60%	60%	60%	N=C(N)NCC1CCC(CN(Cc2cccc(Oc3ccc(Cl)cc3)c2)C(=O)c2ccc(Cl)nc2)CC1 (stereo not drawn) [Compound 76]
52%	48%	56%	N=C(N)NCC1CCC(CN(Cc2cccc(Oc3ccc(Cl)cc3)c2)C(=O)C2CCCC2)CC1 (stereo not drawn) [Compound 77]
59%	59%	58%	N=C(N)NCC1CCC(CN(CC23CC=CCC2C2CC=CCC2O3)C(=O)c2cc3ccccc3s2)CC1 (stereo not drawn) [Compound 78]
49%	50%	48%	Cc1cc2c(cc1CN(CC1CCC(CNC(=N)N)CC1)C(=O)c1ccc([N+](=O)[O-])o1)C(C)(C)CCC2(C)C (stereo not drawn) [Compound 79]
-4%	-4%	-4%	Cc1cc2c(cc1CN(CC1CCC(CNC(=N)N)CC1)C(=O)c1ccco1)C(C)(C)CCC2(C)C (stereo not drawn) [Compound 80]
27%	28%	25%	Cc1cc2c(cc1CN(CC1CCC(CNC(=N)N)CC1)C(=O)COCc1ccccc1)C(C)(C)CCC2(C)C (stereo not drawn) [Compound 81]
41%	46%	35%	COCC(=O)N(Cc1cc2c(cc1C)C(C)(C)CCC2(C)C)CC1CCC(CNC(=N)N)CC1 (stereo not drawn) [Compound 82]
55%	53%	57%	CC(=O)N(Cc1cc2c(cc1C)C(C)(C)CCC2(C)C)CC1CCC(CNC(=N)N)CC1 (stereo not drawn) [Compound 83]
48%	52%	44%	Cc1cc2c(cc1CN(CC1CCC(CNC(=N)N)CC1)C(=O)c1ccc(Cl)nc1)C(C)(C)CCC2(C)C (stereo not drawn) [Compound 84]
51%	52%	50%	Cc1cc2c(cc1CN(CC1CCC(CNC(=N)N)CC1)C(=O)C1CCCC1)C(C)(C)CCC2(C)C (stereo not drawn) [Compound 85]
51%	56%	45%	N=C(N)NCC1CCC(CN(Cc2cc3c(cc2Cl)OCO3)C(=O)c2ccco2)CC1 (stereo not drawn) [Compound 86]
52%	57%	47%	CCOc1cc(OCC)c(OCC)cc1CN(CC1CCC(CNC(=N)N)CC1)C(=O)c1ccco1 (stereo not drawn) [Compound 87]

From patent US6646137B1, “Non-peptide GnRH agents” (priority 1998, dated 2003)
